In ChEMBL document CHEMBL4145634, “Discovery of Janus Kinase 2 (JAK2) and Histone Deacetylase (HDAC) Dual Inhibitors as a Novel Strategy for the Combinational Treatment of Leukemia and Invasive Fungal Infections” (J Med Chem, 2018):

How the values were obtained:
HEL [1] = experiment: Cell cycle arrest in human HEL cells assessed as accumulation at S phase at 1 uM after 48 hrs propidium iodide staining based flow cytometry relative to control; assay type: functional
HEL [2] = experiment: Antitumor activity in human HEL cells xenografted in SCID mouse assessed as increase in mouse survival at 10 mg/kg, ip qd measured on day 32; assay type: functional; details: 768 h
[3] = Cmax in Sprague-Dawley rat at 10 mg/kg, ip by LC-MS/MS analysis; assay type: ADME, organism-based; parameters: dose 10 mg/kg, route intraperitoneal; details: in vivo
[4] = Half life in Sprague-Dawley rat at 10 mg/kg, ip by LC-MS/MS analysis; assay type: ADME, organism-based; details: in vivo
Candida albicans = experiment: Antibiofilm activity against FLC resistant Candida albicans 0304103 assessed as inhibition of biofilm formation pre-incubated with 64 ug/ml FLC for 90 mins followed by further incubation with compound at 16 ug/ml for 24 hrs by XTT reduction assay; assay type: functional
Rattus norvegicus = experiment: Clearance in Sprague-Dawley rat at 10 mg/kg, ip by LC-MS/MS analysis; assay type: ADME, organism-based; details: in vivo
[5] = Tmax in Sprague-Dawley rat at 10 mg/kg, ip by LC-MS/MS analysis; assay type: ADME, organism-based; details: in vivo
[6] = AUC (0 to infinity) in Sprague-Dawley rat at 10 mg/kg, ip by LC-MS/MS analysis; assay type: ADME, organism-based; parameters: dose 10 mg/kg, route intraperitoneal, time infinity; details: in vivo
HEL [7] = experiment: Antitumor activity against human HEL cells xenografted in BALB/C nude mouse assessed as tumor growth at 10 mg/kg, ip bid treated for 21 consecutive days relative to control; assay type: functional
HEL [8] = experiment: Cell cycle arrest in human HEL cells assessed as accumulation at S phase at 10 uM after 48 hrs propidium iodide staining based flow cytometry relative to control; assay type: functional
HEL [9] = experiment: Antitumor activity against human HEL cells xenografted in BALB/C nude mouse assessed as tumor growth inhibition at 10 mg/kg, ip bid treated for 21 consecutive days relative to control; assay type: functional; details: read-out: TGI

SMILES	Activity (HEL [1]) [%]	survival at 10 mg/kg (HEL [2]) [%]	Cmax [3] [ng/mL]	half-life [4] [h]	inhibition (INH) (Candida albicans) [%]	clearance (Rattus norvegicus) [mL/min/kg]	Tmax [5] [h]	AUC(0-inf) [6] [ng·h/mL]	T/C (HEL [7]) [%]	Activity (HEL [8]) [%]	inhibition in vivo at 10 mg/kg (HEL [9]) [%]
CS(=O)(=O)Nc1ccc(-c2ccnc(Nc3ccc(N4CCC(C(=O)NCCCCCCCC(=O)NO)CC4)cc3)n2)cc1	25.56	–	–	–	–	–	–	–	–	–	–
CS(=O)(=O)Nc1ccc(-c2ccnc(Nc3ccc(N4CCC(C(=O)Nc5ccc(/C=C/C(=O)NO)cc5)CC4)cc3)n2)cc1	–	37.5	1600	5.14	30	37.4	0.5	4470	–	–	–
O=C(NO)c1ccc(-c2ccnc(Nc3ccc(N4CCOCC4)cc3)n2)cc1	–	–	–	–	30	–	–	–	41.1	48.68	59.9
